# Key:
# Assay type in all cases: ADME, organism-based
# [1] = Tmax in lung transplant recipient at 6 mg/kg, iv twice a day administered immediately post transplant as 2 hr infusion followed by 200 mg, po bid for 3 months by HPLC analysis; parameters: dose 6 mg/kg, route oral; conditions: human, in vivo
# [2] = Cmax in lung transplant recipient at 6 mg/kg, iv twice a day administered immediately post transplant as 2 hr infusion followed by 200 mg, po bid for 3 months by HPLC analysis; parameters: dose 6 mg/kg, route oral; conditions: human, in vivo
# [3] = Cmax in lung transplant recipient at 6 mg/kg, iv twice a day administered immediately post transplant as 2 hr infusion; parameters: dose 6 mg/kg, route intravenous; conditions: human, in vivo
# [4] = Plasma concentration in lung transplant recipient at 6 mg/kg, iv twice a day administered immediately post transplant as 2 hr infusion followed by 200 mg, po bid for 3 months by HPLC analysis; parameters: dose 6 mg/kg, route oral; conditions: human
smiles,measurement,setting,value
C[C@@H](c1ncncc1F)[C@](O)(Cn1cncn1)c1ccc(F)cc1F [VORICONAZOLE],Tmax,[1],1.9 h
same,Cmax,[2],5900 ng/mL
same,Cmax,[3],3600 ng/mL
same,concentration at 2 h,[4],1000 ng/mL
